Measured values as given in patent US20220324912A1, “THERAPEUTIC PEPTIDES” (COHBAR, INC., priority 2019, published 2022).
Non-standard residues stand in square brackets, D forms with d. No end group written: not given here.

Experiments:
C2C12 cells [1] = assay: Cell Proliferation in C2C12 Cells (Cyquant DNA dye); type: cell-based, mouse; conditions: peptides 10 μM, 72 hours with readdition every 24 hours, relative to 0.1% DMSO control
Protocol: The effect of the peptides on cell proliferation was assessed using a DNA dye binding assay in cultured cells such as mouse myoblast cells. Peptides were initially prepared as 10 mM stock in DMSO, diluted to 1 mM in H2O, and added at a final concentration of 10 μM (0.1% DMSO). Lovastatin was used as a growth arrest control at final concentration of […]. […] C2C12 cells were grown in DMEM supplemented with 20% FBS with 100 IU/ml penicillin and 100 μg/ml streptomycin. […] C2C12 cells were seeded at 800 cells per well on 96-well plates. […] Cell proliferation was determined using Cyquant Direct Nucleic Acid Stain (Thermo Fisher Scientific, Waltham, Mass.) according to the manufacturer's instructions. Fluorescence for each sample well on the plate was measured using a Cytation 3 plate reader at Ex/Em=495/535 nm (BioTek, Winooski, Vt.). Activity was calculated relative to 0.1% DMSO untreated control. The relative standard deviation for the lovastatin control was <27%. The cell proliferation for the lovastatin control was <25% of the value for untreated control.

3T3-L1 mouse adipocytes = assay: Free Fatty Acid Levels in 3T3-L1 Mouse Adipocytes (Example 12, 10 μM); type: cell-based; conditions: peptides 10 μM, 20-22 hours then 3 hours with isoproterenol 1 nM, 3T3-L1 mouse adipocytes
Protocol: The effect of the peptides on fatty acid metabolism can be assessed using an assay of free fatty acid levels in cultured cells such as mouse adipocytes. Peptides were initially prepared as 10 mM stock in DMSO, diluted to 1 mM in H2O, and used at a final concentration of 10 μM (0.1% DMSO). […] After 20-22 hours, 1 nM isoproterenol was added to all wells except untreated controls and test peptides were replenished. Insulin at 100 nM was added to control wells. […] Free fatty acid concentrations in the media were determined using a Free Fatty Acid Assay kit (Zen-Bio) according to the manufacturer's instructions using a Cytation 3 plate reader at 540 nm (BioTek, Winooski, Vt.). Absorbance values were corrected for untreated background and expressed relative to isoproterenol treated cells. Treatment with isoproterenol (1 nM) alone was used as the free fatty acid level stimulatory control. The relative standard deviation of the isoproterenol control was <10%. […] Free fatty acid levels for insulin (100 nM) treatment were <5% of the isoproterenol control value.

C2C12 cells [2] = assay: Cellular ROS Levels Induced by TBHP in C2C12 Cells (DCFDA); type: cell-based, mouse; conditions: peptides 10 μM, 18-20 hours, then TBHP 100 μM 1 hour, relative to TBHP control
Protocol: The protective or synergistic effect of the peptides on cellular levels of reactive oxygen species (ROS) induced by oxidative stress can be assessed using an assay of ROS in cultured cells such as mouse myoblasts exposed to a suitable oxidative stress. Peptides were initially prepared as 10 mM stock in DMSO, diluted to 1 mM in H2O, and added at a final concentration of 10 μM (0.1% DMSO). […] TBHP was used at final concentration of 100 μM. Sulforaphane at final concentration of 10 µM was used as a protective control against TBHP induced ROS production. […] C2C12 cells were grown in DMEM supplemented with 20% FBS with 100 IU/ml penicillin and 100 μg/ml streptomycin. […] C2C12 cells were seeded at 7,500 cells per well on 96-well plates. […] After 18-20 hours of incubation the cells were loaded with DCFDA for 45 min. TBHP at 100 μM was then added to the appropriate wells for 1 hour. ROS activity was determined using a DCFDA Cellular ROS Detection Assay kit (Abcam, Cambridge, Mass.) according to the manufacturer's instructions. Fluorescence in each sample well on the plate was measured using a Cytation 3 plate reader at Ex/Em=485/535 nm (BioTek, Winooski, Vt.). Activity was calculated relative to TBHP control. The relative standard deviation of the sulforaphane control was <20%. The ROS level produced by the sulforaphane control in the presence of TBHP was 52% of the TBHP control.

C2C12 cells [3] = assay: ATP Levels in Cultured C2C12 Cells (CellTiter-Glo); type: cell-based, mouse; conditions: peptides 10 μM, 3 days with readdition every 24 hours, relative to 0.1% DMSO control
Protocol: The effect of the peptides on cellular metabolism can be assessed using an assay of ATP levels in cultured cells such as mouse myoblast cells. Peptides were initially prepared as 10 mM stock in DMSO, diluted to 1 mM in H2O, and used at a final concentration of 10 μM (0.1% DMSO). […] Lovastatin was prepared as 10 mM stock in 70% Ethanol and used at final concentration of 10 µM containing 0.1% DMSO. CellTiter-Glo® Assay kit was purchased from Promega (Madison, Wis.). […] C2C12 cells were grown in DMEM medium supplemented with 20% FBS with 100 IU/ml penicillin and 100 μg/ml streptomycin. […] C2C12 cells were seeded at 800 cells per well on 96-well plates. […] ATP levels were determined using a CellTiter-Glo Assay kit according to the manufacturer's instructions. Luminescence for each sample well on the plate was measured using a Cytation 3 plate reader (BioTek, Winooski, Vt.). Activity was calculated relative to 0.1% DMSO treated control. The relative standard deviation of the result for the 0.1% DMSO treated control was <5%. […] ATP levels for treatment with lovastatin (10 μM) were <50% of the 0.1% DMSO treated control value.

[4] = system: Caspase 3/7 in C2C12 cells; assay: Caspase 3/7 Activity in C2C12 Cells; type: cell-based, mouse; conditions: peptides 10 μM, 24 hours, relative to 0.1% DMSO control
Protocol: The effect of the peptides on cell death/survival can be assessed using a caspase-3/7 assay in cultured cells such as mouse myoblast cells. Peptides were initially prepared as 10 mM stock in DMSO, diluted to 1 mM in H2O, and used at a final concentration of 10 μM (0.1% DMSO). […] Staurosporine (Abcam, Cambridge, Mass.) was dissolved at 10 mM in DMSO as a stock solution. Caspase-Glo 3/7 Assay Reagent was purchased from Promega (Madison, Wis.). C2C12 cell line was purchased from American Type Culture Collection (Manassas, Va.). C2C12 cells were grown in DMEM supplemented with 20% FBS with 100 IU/ml penicillin and 100 μg/ml streptomycin. Cultures were maintained at 37° C. in a humidified atmosphere of 5% CO2/95% air. C2C12 cells were seeded at 4,000 cells per well on 96-well plates. The next day cells were incubated with test peptides at 10 μM or staurosporine at concentrations between 100 nM and 5 nM using a final concentration of 0.1% DMSO and maintained at 37° C. in a humidified atmosphere of 5% CO2/95% air for 24 hours. Caspase 3/7 activity was determined using a Caspase-Glo 3/7 Assay kit according to the manufacturer's instructions. Luminescence for each sample well on the plate was measured using a Cytation 3 plate reader (BioTek, Winooski, Vt.). Activity was calculated relative to 0.1% DMSO control.

DIO mice = assay: Metabolic parameters in DIO mice, twice daily intraperitoneal, 10 days (Example 16); type: in vivo, mouse; conditions: 5 mg/kg, male DIO mice
Protocol: Male C57BL/6 mice were maintained on a high fat diet for 18 weeks to develop diet induced obesity. Animals were randomized to treatment groups based on blood glucose levels and body weight. The peptides of the invention were administered to groups of male DIO mice twice daily by intraperitoneal injection at a dose of 5 mg/kg/dose for 10 days (N=8 animals per treatment group). An additional group of male DIO mice (n=8) received vehicle (water) alone administered twice daily by intraperitoneal injection. Body weight, blood glucose levels and food intake were monitored. Body mass distribution (fat vs lean) was determined by quantitative whole body NMR prior to dosing and at the end of dosing.

Substance	Cell proliferation, Percent of Control (C2C12 cells [1])	Free fatty acid levels, Percent of Isoproterenol Control Activity (3T3-L1 mouse adipocytes)	Cellular ROS levels induced by TBHP, Percent of Control (C2C12 cells [2])	ATP levels, Percent of Control Activity (C2C12 cells [3])	Caspase 3/7 activity, Percent of Control Activity [4]	Difference from Vehicle Control: Decrease from Baseline in Blood Glucose (DIO mice)	Difference from Vehicle Control: Decrease from Baseline in Body Weight (DIO mice)	Difference from Vehicle Control: Decrease from Baseline in Fat Mass (DIO mice)
18 (S[dA]ILTNPVLGWVWV) [compound 18]	101.7%	95.9%	100.7%	103.2%	97.0%			
11 (RLPGSAILTNPVL[dA]WVWV) [compound 11]	98.1%	47.2%	103.5%	100.7%	98.7%	4.76 mg/dL	−1.81%	-1.09 g
16 (PGS[dA]ILTNPVLGWVWV) [compound 16]	100.3%	97.2%	106.0%	102.7%	99.7%			
15 (LPGS[dA]ILTNPVLGWVWV) [compound 15]	115.1%	92.8%	101.5%	101.6%	105.6%			
17 (GS[dA]ILTNPVLGWVWV) [compound 17]	110.0%	88.5%	100.8%	103.8%	97.1%			
